Structures are written as SMILES. Values after ≈ are worked out from the molar mass of the structure shown. Read-outs that look alike come from different tables or passages of the source.

Here are results for three compounds from patent US20220242905A1, “MODIFIED PEPTIDES AND THEIR USE” (UNIVERSITE DE MONTPELLIER, priority 2018, published 2022).

Series [1] deals with Candida albicans ATCC10231. It counts as cell-based. To be noted: for Minimal inhibitory concentration (MIC) C. albicans ATCC10231: ATCC10231, 48 h; for Minimal bactericidal concentration (MBC) C. albicans ATCC10231: value in bracket, 48 h at 25° C. The procedure: (§1) Minimal inhibitory concentration (MIC) values and minimal bactericidal concentration (MBCs) values for ATC-peptides 1-9 were determined against both Gram-positive (Bacillus subtilis, Staphylococcus aureus, Enterococcus faecalis) and Gram negative (Escherichia coli, Pseudomonas aeruginosa) bacteria as well as a yeast (Candida albicans). Experiments were conducted in triplicate. For B. subtilis, compounds were tested against vegetative cells and spores, which are particularly resistant to the action of antimicrobial agents. MIC and MBCs values are shown Table 12. In addition, haemolytic properties of 1-9 were tested.
(§2) the antimicrobial performances of oligomers antimicrobial activity were determined on three Gram positive strains (Bacillus subtilis ATCC6633, Staphylococcus aureus ATCC6538 and Enterococcus faecalis ATCC29121), two Gram negative strains (Escherichia coli ATCC8739 and Pseudomonas aeruginosa ATCC9027) and one fungal strain (Candida albicans ATCC10231). Each bacterial strain was allowed to grow overnight on Trypto-Caseine-Soja agar (TSA, Difco) at 37° C., C. albicans was allowed to grow 48 h on a sabouraud medium (Difco) at 20-25° C. A fresh suspension at 10^8 CFU·mL^−1 was then prepared by inoculating the micro-organisms in a Tryptone-Sel solution. Concentration was monitored by measuring transmitted light at 620 nm or with the Mac Farland turbidity standard (Mac Farland=0.5≈10^8 CFU·mL^−1). Each suspension was then diluted in a doubly strong Mueller-Hinton (MH, Difco) broth to […]. Two-fold serial dilutions (100 μL) of oligomers in sterile water (pH adjusted between 7.4 and 7.7 with HCl and NaOH solutions) were mixed with microbial inoculum (100 μL) in NUNC sterile clear polystyrene flat-bottom 96-well plates. A 1/1 v/v oligomer solution/water mixture was used a negative control and a 1/1 vv water/microbial inoculum mixture was used a positive control. Plates were then incubated 24 h at 37° C. for bacteria and 48 h at 25° C. for C. albicans. Minimum Inhibitory Concentration (MIC) was determined as the lowest concentration inhibiting the growth of each micro-organism. […] Minimum Bactericidal Concentration (MBC) was determined as the lowest concentration that prevent the growth of more than one colony. Each assay was performed in a triple duplicate for each strain.

Series [2] concerns Escherichia coli ATCC8739. It counts as cell-based. To be noted: for Minimal inhibitory concentration (MIC) E. coli ATCC8739: ATCC8739, 24 h; for Minimal bactericidal concentration (MBC) E. coli ATCC8739: value in bracket, 24 h at 37° C. As for the experimental part:
as §1, §2

For series [3], the system named is Staphylococcus aureus ATCC6538. It counts as cell-based. To be noted: for Minimal inhibitory concentration (MIC) S. aureus ATCC6538: ATCC6538, 24 h; for Minimal bactericidal concentration (MBC) S. aureus ATCC6538: value in bracket, 24 h at 37° C. The procedure: as §1, §2
Series [4] has as its system Enterococcus faecalis ATCC29121. It counts as cell-based. Particulars: for Minimal inhibitory concentration (MIC) E. faecalis ATCC29121: ATCC29121, 24 h; for Minimal bactericidal concentration (MBC) E. faecalis ATCC29121: value in bracket, 24 h at 37° C. As for the experimental part: as §1, §2
Series [5] has as its system Pseudomonas aeruginosa ATCC9027. It counts as cell-based. To be noted: for Minimal inhibitory concentration (MIC) P. aeruginosa ATCC9027: ATCC9027, 24 h; for Minimal bactericidal concentration (MBC) P. aeruginosa ATCC9027: value in bracket, 24 h at 37° C. As for the experimental part:
as §1, §2

The subject of series [6] is Bacillus subtilis ATCC6633. It counts as cell-based. To be noted: for Minimal inhibitory concentration (MIC) B. subtilis ATCC6633: ATCC6633, 24 h; for Minimal bactericidal concentration (MBC) B. subtilis ATCC6633: value in bracket, 24 h at 37° C. The procedure: as §1, §2
The test system of series [7] is Human red blood cells (hRBCs). The series can be described thus: Hemolytic activity. It counts as cell-based. To be noted: 1 h at 37° C., printed in the HD50 column. The procedure:
(§3) Procedure for measurements of hemolytic activity: Human red blood cells (hRBCs) were washed multiple times with phosphate-buffered saline (PBS) until a clear supernatant was obtained. The hRBCs suspension was made in PBS with a Packed Cell Volume of 5%, Two-fold serial dilutions (50 μL) of oligomers in sterile water (pH adjusted between 7.4 and 7.7 with HCl and NaOH solutions) were mixed with hRBCs suspension (50 μL) in clear polystyrene optical-bottom 96-well plates which were filmed and incubated for 1 h at 37° C. A 1/1 vv hRBCs solution/PBS mixture was used a negative control and a 1/1 vv hRBCs solution/1% (TRIS 50 mM pH=8.0+1% SDS) mixture was used a positive control for 100% hemolysis. The mixture was then centrifuged at 1500 g for 10 min at 5° C. Next, 50 μL of the supernatant was transferred into a second plate, and the absorbance was read at 490 nm using a BioRad iMark plate reader. The hemolysis percentage was calculated by the formula % hemolysis=[Absorbance (sample)−Absorbance (negative control)]/[Absorbance (positive control)−Absorbance (negative control)]×100%. Each assay was performed in a double duplicate. Hemolytic activity was determined or estimated with the Hemolytic Concentration leading to 50% of lysis of hRBCs (HC50).

A short description of series [8]: Hemolytic activity. To be noted: human, human red blood cell suspension; hRBCs, 1 h at 37° C.; read-out: HD50, dose required to lyse 50% of the red blood cells. It counts as cell-based, Human. As for the experimental part: as §3
Series [9] relates to E. coli. It counts as cell-based, Escherichia coli. To be noted: 2 h. The procedure:
FIG. 17 represents a graphic showing the results of a time-kill study of oligomer 9 on E. coli over 2 h incubation at 37° C.
(§4) Surface electron microscopy (SEM) experiments: oligomer 9 was evaluated for its impact on E. coli morphology by surface electron microscopy (SEM). In order to define the best incubation period to observed antimicrobial effects, time-kill study was conducted over 2 h incubation at 37° C. […] Significant decrease of the growth rate was observed between 40 to 60 min at 4× and 8×MIC. TEM experiments were performed after 60 min contact between bacteria cells and compound 9. […] In addition, whereas there were no fragments for control untreated bacteria, numerous spherical elements whose diameters were lower than 0.1 μm were observed around bacteria, the number of which increasing with the peptide concentration. Despite some dispersion in size, such fragments, probable microsomes, were classically reported with other AMPs associated with membrane permeation and/or depolarization. [M. Hartmann, M. Berditsch J. Hawecker, F. Ardakani, D. Gerthsen, A. S. Ulrich, Antimicrob. Agents Chemother. 2010, 54, 3132-3142 b/ E. Duval, C, Zatylny, M. Laurencin, M. Baudy-Floc'h, J. Henry, Peptides 2009, 30, 1608-1612.]

Series [10] deals with E. coli. The series can be described thus: Surface electron microscopy (SEM) of bacterial morphology. To be noted: after 60 min incubation with 8×MIC; untreated about 2.0 μm. It counts as cell-based, Escherichia coli. The procedure: FIG. 18 represents electronic microscopy photos. A/, B/ and C/ SEM micrographs untreated E. coli on glass platelets. In isotonic medium the cells are long, intact and evenly shaped.
FIG. 19 represents SEM micrographs untreated E. coli after 60 min incubation with 8×MIC of 9.
as §4, with “1608-1612.] […]” for “1608-1612.]”

In the case of `CC(=O)N[C@@H](CCCCN)c1nc(C)sc1C(=O)N[C@@H](C)c1nc(C)sc1C(=O)N[C@@H](C)c1nc(CCCCN)sc1C(=O)N[C@@H](C)c1nc(C)sc1C(=O)N[C@@H](C)c1nc(CCCCN)sc1C(=O)N[C@@H](CCCCN)c1nc(C)sc1C(=O)N[C@@H](C)c1nc(CCCCN)sc1C(=O)N[C@@H](CCCCN)c1nc(C)sc1C(=O)N[C@@H](C)c1nc(C)sc1C(=O)N[C@@H](C)c1nc(C)sc1C(=O)N[C@@H](C)c1nc(CCCCN)sc1C(=O)N[C@@H](CCCCN)c1nc(C)sc1C(N)=O` [Oligomer 5], in [1], the “Minimal inhibitory concentration (MIC) C. albicans ATCC10231” value stood at 50 µM (≈ 127 µg/mL). Moreover, the “Minimal inhibitory concentration (MIC) E. coli ATCC8739” value in series [2] was determined as 5.2 µM (≈ 13.2 µg/mL). The “Minimal inhibitory concentration (MIC) S. aureus ATCC6538” value in series [3] amounted to 100 µM (≈ 253 µg/mL). In addition, the “Minimal inhibitory concentration (MIC) E. faecalis ATCC29121” value in [4] was above 150 µM. In series [5], the “Minimal inhibitory concentration (MIC) P. aeruginosa ATCC9027” value came to 100 µM (≈ 253 µg/mL). In addition, the “Minimal inhibitory concentration (MIC) B. subtilis ATCC6633” value in series [6] was determined as 0.8 µM (≈ 2.03 µg/mL). In addition, the HD10 in series [7] is 62.5 µM.

Take `CC(=O)N[C@@H](CCCNC(=N)N)c1nc(C)sc1C(=O)N[C@@H](C)c1nc(CCCNC(=N)N)sc1C(=O)N[C@@H](C)c1nc(C)sc1C(=O)N[C@@H](CCCNC(=N)N)c1nc(C)sc1C(=O)N[C@@H](C)c1nc(CCCNC(=N)N)sc1C(=O)N[C@@H](C)c1nc(C)sc1C(=O)N[C@@H](CCCNC(=N)N)c1nc(C)sc1C(=O)N[C@@H](C)c1nc(CCCNC(=N)N)sc1C(=O)N[C@@H](C)c1nc(C)sc1C(N)=O` [Oligomer 8]: in series [1], the “Minimal inhibitory concentration (MIC) C. albicans ATCC10231” value amounted to 9.4 µM (≈ 19.6 µg/mL) and the “Minimal bactericidal concentration (MBC) C. albicans ATCC10231” value is reported as “(12.5) μM”. In addition, in series [2], the “Minimal inhibitory concentration (MIC) E. coli ATCC8739” value is 0.8 µM (≈ 1.67 µg/mL) and the “Minimal bactericidal concentration (MBC) E. coli ATCC8739” value is reported as “(0.8) μM”. In series [3], the “Minimal inhibitory concentration (MIC) S. aureus ATCC6538” value is 14.6 µM (≈ 30.4 µg/mL) and the “Minimal bactericidal concentration (MBC) S. aureus ATCC6538” value was “(16.5) μM”. In series [4], the “Minimal inhibitory concentration (MIC) E. faecalis ATCC29121” value was determined as 100 µM (≈ 208 µg/mL) and the “Minimal bactericidal concentration (MBC) E. faecalis ATCC29121” value is listed as “(>100) μM”. Moreover, in series [5], the “Minimal inhibitory concentration (MIC) P. aeruginosa ATCC9027” value is 54 µM (≈ 113 µg/mL) and the “Minimal bactericidal concentration (MBC) P. aeruginosa ATCC9027” value is “(100) μM”. In series [6], the “Minimal inhibitory concentration (MIC) B. subtilis ATCC6633” value was determined as 0.5 µM (≈ 1.04 µg/mL) and the “Minimal bactericidal concentration (MBC) B. subtilis ATCC6633” value is “(0.5) μM”. For the same compound, the HC50 at 1 h in series [8] is above 100 µM.

As to `CC(=O)N[C@@H](CCCNC(=N)N)c1nc(C)sc1C(=O)N[C@@H](C)c1nc(CCCNC(=N)N)sc1C(=O)N[C@@H](C)c1nc(C)sc1C(=O)N[C@@H](CCCNC(=N)N)c1nc(C)sc1C(=O)N[C@@H](C)c1nc(CCCNC(=N)N)sc1C(=O)N[C@@H](C)c1nc(C)sc1C(=O)N[C@@H](CCCNC(=N)N)c1nc(C)sc1C(=O)N[C@@H](C)c1nc(CCCNC(=N)N)sc1C(=O)N[C@@H](C)c1nc(C)sc1C(=O)N[C@@H](CCCNC(=N)N)c1nc(C)sc1C(=O)N[C@@H](C)c1nc(CCCNC(=N)N)sc1C(=O)N[C@@H](C)c1nc(C)sc1C(N)=O` [Oligomer 9], the “average log reduction of the viable cell count” value in [9] is recorded as 0.95 log10 cfu/ml. For the same compound, the “average log reduction of the viable cell count” value in [9] (8) was found to be 4.73 log10 cfu/ml. Further, in series [1], the “Minimal inhibitory concentration (MIC) C. albicans ATCC10231” value was 6.2 µM (≈ 17.1 µg/mL) and the “Minimal bactericidal concentration (MBC) C. albicans ATCC10231” value was “(6.2) μM”. Moreover, in [2], the “Minimal inhibitory concentration (MIC) E. coli ATCC8739” value is 1.8 µM (≈ 4.97 µg/mL) and the “Minimal bactericidal concentration (MBC) E. coli ATCC8739” value is listed as “(2.3) μM”. In series [3], the “Minimal inhibitory concentration (MIC) S. aureus ATCC6538” value was 3.1 µM (≈ 8.55 µg/mL) and the “Minimal bactericidal concentration (MBC) S. aureus ATCC6538” value is recorded as “(7.8) μM”. Also, in [4], the “Minimal inhibitory concentration (MIC) E. faecalis ATCC29121” value is 20.8 µM (≈ 57.4 µg/mL) and the “Minimal bactericidal concentration (MBC) E. faecalis ATCC29121” value is on record as “(25) μM”. In series [5], the “Minimal inhibitory concentration (MIC) P. aeruginosa ATCC9027” value worked out at 4.2 µM (≈ 11.6 µg/mL) and the “Minimal bactericidal concentration (MBC) P. aeruginosa ATCC9027” value is listed as “(4.7) μM”. In addition, in series [6], the “Minimal inhibitory concentration (MIC) B. subtilis ATCC6633” value was found to be 0.6 µM (≈ 1.66 µg/mL) and the “Minimal bactericidal concentration (MBC) B. subtilis ATCC6633” value is listed as “(0.8) μM”. The HC50 at 1 h in series [8] was above 100 µM. The “length of E. coli cells” value in series [10] was at least 1.3 μm.
